One assay deals with Aspicularis tetraptera. The assay can be described thus: Efficacy against Aspicularis tetraptera in mice (absence or presence of parasites). It is filed as in vivo, Aspicularis tetraptera (host: Swiss Webster mice). Also noted: key: Active; Inactive. The method, then:
(§1) Efficacy of 4-Hydroxy-2-oxo-2H-1-benzopyran-3-carboxanilide derivatives against various helminths in mice
(§2) Six weeks old Swiss Webster mice are orally inoculated with Nematospiroides dubius, Hymenolepis nana and Aspicularis tetraptera. Eighteen days postinoculation the mice are treated with the appropriate drug diet level for 7 days. For single oral dose administration the compound is thoroughly mixed with 0.1 percent agar and orally intubated at the required dosage 22 days postinfection. 10-15,000 Ascaris suum infective eggs are administered to mice after 1 day on diet medication or 3 days prior to single oral dose administration. Determination of efficacy is done by counting all the N. dubius in treated mice versus the control average. For H. nana and A. tetraptera the absence or presence of these parasites in treated mice is the criterior for determining activity. For A. suum activity the following criterion was used. Reduction or elimination of lung pathology and the total number of lung larvae from treated animals was compared to lung larvae recovered from controls.

Another assay has as its system Hymenolepis nana. The assay can be described thus: Efficacy against Hymenolepis nana in mice (absence or presence of parasites). The assay is classed as in vivo, Hymenolepis nana (host: Swiss Webster mice). Set-up: key: Active; Inactive. How it is done:
as §1, §2

The subject of the next assay is Nematospiroides dubius. The assay can be described thus: Efficacy against Nematospiroides dubius in mice (worm count in treated mice versus control average). It is filed as in vivo, Nematospiroides dubius (host: Swiss Webster mice). Set-up: key to % Eff. N.d. (class symbol): Active; Inactive. As to conditions: for inhibition in vivo at 0.1 % / inhibition in vivo at 0.05 %: po, 168 h; for inhibition in vivo at 0.1 %: drug diet 0.1% for 7 days; for inhibition in vivo at 0.05 %: drug diet 0.05% for 7 days. The method, then:
as §1, §2

In the next assay the test system is Ascaris suum. The assay can be described thus: Efficacy against Ascaris suum in mice (lung pathology and lung larvae versus controls). It is filed as in vivo, Ascaris suum (host: Swiss Webster mice). Set-up: key: Active; Inactive. The method, then: as §1, §2
In a further assay the test system is Ostertagia circumcincta. Nature of the assay: Evaluation (efficacy) test in experimentally inoculated sheep, Ostertagia circumcincta. The assay is classed as in vivo, Ostertagia circumcincta (host: lambs). The settings on record: intraruminal dose 50 mg/kg. How it is done: (§3) Evaluation (Efficacy) Test in Sheep
(§4) Lambs are experimentally inoculated with Haemonchus contortus (H.c.), Trichostrongylus axei (T.a.), Ostertagia circumcincta (O.c) and Trichostrongylus colubriformis (T.c.) species. At patency of the parasites the lambs are treated with 50 mg/kg of body weight with the compound under test administered as an intraruminal injection in 0.2 percent agar. Three days post treatment treated lambs and similary inoculated controls are necropsied and examined for parasites. Percent efficacy is calculated by comparing the average worm burden in the treated group with the average worm burden in the control group.

Assay [1] concerns Trichostrongylus colubriformis. Nature of the assay: Evaluation (efficacy) test in experimentally inoculated sheep, Trichostrongylus colubriformis. As to conditions: intraruminal dose 50 mg/kg. It is filed as in vivo, Trichostrongylus colubriformis (host: lambs). The method, then:
as §3, §4

The test system of assay [2] is Trichostrongylus colubriformis. Nature of the assay: Evaluation against Trichostrongylus colubriformis in the Mongolian gerbil. It is filed as in vivo, Trichostrongylus colubriformis (host: Mongolian gerbil). How it is done: Evaluation of 3',4'-Dichloro-4-hydroxy-2-oxo-2H-1-benzopyran-3-carboxanilide against Trichlostrongylus colubriformis in the Mongolian Gerbil Monogolian gerbils are inoculated with 2000 T. colubriformis larvae each. Fourteen to 94 days post inoculation the gerbils are treated with the appropiate drug level diet for 6 days. For single oral dose administration the compound is thoroughly mixed with 0.1 percent agar and orally intubated at the required level. After treatment, 24 hour fecal outputs for 3 days are collected from each animal and examined for passage of parasites. Three days post treatment the gerbils are necropsied and examined for parasites. Percent efficacy is calculated using the formula: [formula]

For assay [3], the system named is Trichostrongylus colubriformis. The assay can be described thus: Efficacy against naturally occurring parasitic infestation in sheep, Trichostrongylus colubriformis male. The assay is classed as in vivo, Trichostrongylus colubriformis (host: lambs). The settings on record: naturally infected sheep, single oral dose 100 mg/kg. The method, then:
(§5) Efficacy of 3',4'-Dichloro-4-hydroxy-2-oxo-2H-1-benzopyran-3 -carboxanilideagainst Naturally Occurring Parasitic
(§6) Lambs naturally infected with a number of parasitic species are treated with 100 mg/kg of body weight with the compound under tested administration as a single oral dose. After treatment, 24 hour fecal outputs for 3 days are collected from each animal and examined for the passage of parasites. Three days post treatment the lambs are necropsied and examined for parasites. Percent efficacy is calculated using the formula: [formula]

Assay [4] concerns Trichostrongylus vitrinus. Nature of the assay: Efficacy against naturally occurring parasitic infestation in sheep, Trichostrongylus vitrinus male. It is filed as in vivo, Trichostrongylus vitrinus (host: lambs). The settings on record: naturally infected sheep, single oral dose 100 mg/kg. How it is done:
as §5, §6

A further assay relates to Trichostrongylus axei. Nature of the assay: Evaluation (efficacy) test in experimentally inoculated sheep, Trichostrongylus axei. It is filed as in vivo, Trichostrongylus axei (host: lambs). As to conditions: intraruminal dose 50 mg/kg. How it is done: as §3, §4
The next assay has as its system Haemonchus contortus. Nature of the assay: Evaluation (efficacy) test in experimentally inoculated sheep, Haemonchus contortus. The assay is classed as in vivo, Haemonchus contortus (host: lambs). As to conditions: intraruminal dose 50 mg/kg. How it is done:
as §3, §4

Another assay has as its system Bunostomum. Nature of the assay: Efficacy against naturally occurring parasitic infestation in sheep, Bunostomum. As to conditions: naturally infected sheep, single oral dose 100 mg/kg. The assay is classed as in vivo, Bunostomum (host: lambs). The method, then: as §5, §6
The test system of a further assay is Cooperia punctata. The assay can be described thus: Efficacy against naturally occurring parasitic infestation in sheep, Cooperia punctata. It is filed as in vivo, Cooperia punctata (host: lambs). The settings on record: naturally infected sheep, single oral dose 100 mg/kg. The method, then: as §5, §6
Setting [5] is: Heligmosomoides polygyrus, read-out: % Eff. N.d.

The structures appear in SMILES notation. Where “and” joins values, the source holds several entries; their conditions need not be identical. Identical values can stand only once.

Consider eight compounds from patent US3991204A, “Method of using benzopyrans as antiparasitic agents” (American Cyanamid Company, priority 1975, dated 1976).

As for `O=C(Nc1ccc(F)cc1)c1c(O)c2ccccc2oc1=O` [Example 3], in the assay with Aspicularis tetraptera (drug diet 0.1% for 7 days), the A.t. activity result was “i”. The H.n. activity result in the assay on Hymenolepis nana (drug diet 0.1% for 7 days) is “A”. Also, the inhibition in vivo at 0.1 % in the assay with Nematospiroides dubius (setting [5]) is 54%. For the same compound, in the assay with Ascaris suum (drug diet 0.1% for 7 days), the A.s. activity entry is on record as “i”.

Take `O=C(Nc1cccc(Cl)c1)c1c(O)c2ccccc2oc1=O` [Example 2]: the A.t. activity result with Aspicularis tetraptera (drug diet 0.05% for 7 days) was “i”; with Aspicularis tetraptera (drug diet 0.1% for 7 days), “A”. Also, the figures for the H.n. activity result in the assay with Hymenolepis nana (drug diet 0.05% for 7 days) and with Hymenolepis nana (drug diet 0.1% for 7 days) were “i” and “A”, respectively. In the assay on Nematospiroides dubius (setting [5]), the inhibition in vivo at 0.05 % is 46%. The inhibition in vivo at 0.1 % with Nematospiroides dubius (setting [5]) was determined as 65%. Besides, the A.s. activity entry with Ascaris suum (drug diet 0.05% for 7 days) and in the assay with Ascaris suum (drug diet 0.1% for 7 days) was “i” each time.

Turning to `O=C(Nc1ccccc1F)c1c(O)c2ccccc2oc1=O` [Example 5], the A.t. activity result with Aspicularis tetraptera (drug diet 0.1% for 7 days) is reported as “i”. Further, the H.n. activity result in the assay with Hymenolepis nana (drug diet 0.1% for 7 days) was “i”. The inhibition in vivo at 0.1 % in the assay on Nematospiroides dubius (setting [5]) worked out at 66%. Besides, the A.s. activity result in the assay on Ascaris suum (drug diet 0.1% for 7 days) is “i”.

Regarding `O=C(Nc1cccc(F)c1)c1c(O)c2ccccc2oc1=O` [Example 4], the A.t. activity entry with Aspicularis tetraptera (drug diet 0.1% for 7 days) is “i”. The H.n. activity entry with Hymenolepis nana (drug diet 0.1% for 7 days) was “i”. Further, the inhibition in vivo at 0.1 % in the assay on Nematospiroides dubius (setting [5]) is 77%. Also, the A.s. activity result in the assay with Ascaris suum (drug diet 0.1% for 7 days) is “i”.

Consider `O=C(Nc1cc(F)ccc1F)c1c(O)c2ccccc2oc1=O` [Example 7], for which the A.t. activity result in the assay on Aspicularis tetraptera (drug diet 0.1% for 7 days) is “i”. Also, the H.n. activity entry in the assay on Hymenolepis nana (drug diet 0.1% for 7 days) is reported as “i”. Moreover, the inhibition in vivo at 0.1 % in the assay on Nematospiroides dubius (setting [5]) was 41%. Besides, in the assay with Ascaris suum (drug diet 0.1% for 7 days), the A.s. activity entry is “i”.

As to `O=C(Nc1ccc(F)cc1F)c1c(O)c2ccccc2oc1=O` [Example 6], the A.t. activity result with Aspicularis tetraptera (drug diet 0.1% for 7 days) is reported as “A”. Besides, the H.n. activity result in the assay on Hymenolepis nana (drug diet 0.1% for 7 days) is given as “i”. The inhibition in vivo at 0.1 % in the assay on Nematospiroides dubius (setting [5]) was 94%. Besides, the A.s. activity result in the assay on Ascaris suum (drug diet 0.1% for 7 days) is on record as “i”.

On to `O=C(Nc1ccc(Cl)c(Cl)c1)c1c(O)c2ccccc2oc1=O` [Example 1, 3',4'-Dichloro-4-hydroxy-2-oxo-2H-1-benzopyran-3-carboxanilide], for which the “% Efficacy O.c.” value in the assay with Ostertagia circumcincta was found to be 86%. Further, the A.t. activity entry in the assay with Aspicularis tetraptera (drug diet 0.1% for 7 days) is reported as “A”; in the assay on Aspicularis tetraptera (single oral dose 100 mg/kg), “A”; in the assay on Aspicularis tetraptera (single oral dose 500 mg/kg), “A”; in the assay with Aspicularis tetraptera (single oral dose 1000 mg/kg), “i”. In addition, the H.n. activity entry in the assay with Hymenolepis nana (drug diet 0.05% for 7 days) is “i”; in the assay on Hymenolepis nana (drug diet 0.1% for 7 days), “A”; with Hymenolepis nana (single oral dose 100 mg/kg), “i”; with Hymenolepis nana (single oral dose 500 mg/kg) it was “i”; with Hymenolepis nana (single oral dose 1000 mg/kg), “i”. The “% Efficacy T.c.” value in assay [1] is 35%. The “% Efficacy” value in assay [2] (0.05% drug in feed × 6 Days) came to 82%; in assay [2] (single oral dose 100 mg/kg), 40%; in assay [2] (single oral dose 500 mg/kg) it was 100%. Moreover, the “% Efficacy T.c. Male” value in assay [3] was 85% and 61%. The “% Efficacy T.v. Male” value in assay [4] is 100% and 79%. Moreover, the “% Efficacy T.a.” value with Trichostrongylus axei came out at 0%. Also, in the assay with Nematospiroides dubius (setting [5]), the inhibition in vivo at 0.05 % is 85%. Moreover, in the assay with Nematospiroides dubius (setting [5]), the inhibition in vivo at 0.1 % amounted to 100%. In the assay with Nematospiroides dubius (Heligmosomoides polygyrus, single oral dose 2000 mg/kg, read-out: % Eff. N.d.), the inhibition in vivo at 2000 mg/kg amounted to 55%. The “% Eff. N.d. (class symbol)” value in the assay with Nematospiroides dubius (single oral dose 100 mg/kg), with Nematospiroides dubius (single oral dose 500 mg/kg) and with Nematospiroides dubius (single oral dose 1000 mg/kg) was “i” throughout. Also, the “% Efficacy H.c.” value with Haemonchus contortus was found to be 100%. The A.s. activity entry in the assay with Ascaris suum (drug diet 0.05% for 7 days) was “i”; in the assay with Ascaris suum (drug diet 0.1% for 7 days), “i”; in the assay with Ascaris suum (single oral dose 100 mg/kg), “i”; with Ascaris suum (single oral dose 500 mg/kg) it was “A”; with Ascaris suum (single oral dose 1000 mg/kg) it was “A”; in the assay with Ascaris suum (single oral dose 2000 mg/kg) it was “A”. In the assay with Bunostomum, the “% Efficacy Bun.” value was determined as 100%. Moreover, the “% Efficacy C.p.” value with Cooperia punctata was 100%.

As to `O=C(Nc1ccc(Cl)cc1Cl)c1c(O)c2ccccc2oc1=O` [Example 8], the A.t. activity result in the assay on Aspicularis tetraptera (drug diet 0.05% for 7 days) and in the assay on Aspicularis tetraptera (drug diet 0.1% for 7 days) was “A” throughout. For the same compound, the H.n. activity entry with Hymenolepis nana (drug diet 0.05% for 7 days) and in the assay on Hymenolepis nana (drug diet 0.1% for 7 days) was “i” throughout. Besides, the inhibition in vivo at 0.05 % in the assay with Nematospiroides dubius (setting [5]) stood at 94%. Also, the inhibition in vivo at 0.1 % with Nematospiroides dubius (setting [5]) is 100%. In addition, the A.s. activity entry with Ascaris suum (drug diet 0.05% for 7 days) and with Ascaris suum (drug diet 0.1% for 7 days) was “i” in each case.
